The values that follow come from patent publication US8536204B2, “Amides and thioamides as pesticides” (Bayer CropScience AG, priority 2009, dated 2013).

Read-outs that look alike come from different tables or passages of the source.

The subject of data set [1] is green peach aphid (Myzus persicae). As to the kind of experiment: Myzus test (spray treatment). It is filed as in vivo. As to conditions: 144 h, spray on Chinese cabbage leaf slices, after 6 days, read-out: efficacy in % (100% means that all aphids have been killed); for pest or weed control at 500 g/ha: application rate 500 g/ha; for pest or weed control at 50 g/ha: application rate 50 g/ha. On the procedure: Myzus Test (Spray Treatment)
Solvent: • 78 parts by weight of acetone • 1.5 parts by weight of dimethylformamide
(§1) Emulsifier: 0.5 part by weight of alkylaryl polyglycol ether
(§2) To produce an appropriate active ingredient formulation, 1 part by weight of active ingredient is mixed with the amounts of solvent and emulsifier specified and the concentrate is diluted to the desired concentration with emulsifier-containing water.
Chinese cabbage leaf slices (Brassica pekinensis) infested by all stages of the green peach aphid (Myzus persicae) are sprayed with an active ingredient formulation of the desired concentration.
After 6 days, the efficacy in % is determined. 100% means that all aphids have been killed; 0% means that no aphids have been killed.

The nature of data set [2]: Determination of the logP values (formic acid method) by HPLC. As to conditions: acidic range (pH 3.4), 55° C., Table 1, read-out: logP (HCOOH). It is filed as physicochemical. How it is done: 1) Description of Method for Determining the LogP Values (Formic Acid Method)
The logP values reported in the table were determined according to EEC-Directive 79/831 Annex V.A8 by HPLC (High Performance Liquid Chromatography) on a reversed-phase column (C 18). Temperature: 55° C.
Eluents for the determination in the acidic range (pH 3.4):
Eluent A: acetonitrile+1 ml of formic acid/litre. Eluent B: water+0.9 ml of formic acid/litre.
Gradient: from 10% eluent A/90% eluent B to 95% eluent A/5% eluent B in 4.25 min.
The calibration was effected with unbranched alkan-2-ones (with 3 to 16 carbon atoms), whose logP values are known (determination of the logP values on the basis of the retention times by linear interpolation between two successive alkanones). The lambda-max values were determined with reference to the UV spectra from 200 nm to 400 nm in the maxima of the chromatographic signals.

The test system of data set [3] is larvae of the mustard beetle (Phaedon cochleariae). In words: Phaedon test (spray treatment). As to conditions: application rate 500 g/ha, spray on Chinese cabbage leaf slices, after 7 days. In kind it is in vivo. How it is done: Phaedon Test (Spray Treatment)
Solvent: • 78.0 parts by weight of acetone • 1.5 parts by weight of dimethylformamide
as §1, §2
Chinese cabbage leaf slices (Brassica pekinensis) are sprayed with an active ingredient formulation of the desired concentration and, after drying, populated with larvae of the mustard beetle (Phaedon cochleariae).
After 7 days, the efficacy in % is determined. 100% means that all beetle larvae were killed; 0% means that no beetle larvae were killed.

Another data set concerns Boophilus microplus. As to the kind of experiment: Boophilus microplus test (injection). It is filed as in vivo. As to conditions: application rate 20 μg/animal, injected into the abdomen, after 7 days. On the procedure: Boophilus Microplus Test (Injection)
Solvent: dimethyl sulphoxide
To produce an appropriate active ingredient formulation, 10 mg of active ingredient is mixed with 0.5 ml of solvent stated and the concentrate is diluted to the desired concentration with solvent. The active ingredient solution is injected into the abdomen (Boophilus microplus); the animals are transferred to dishes and stored in a climate-controlled room. The action is monitored by the laying of fertile eggs.
After 7 days, the efficacy in % is determined. 100% means that no ticks have laid fertile eggs.

Where [4] appears, read: reversed-phase HPLC column (C 18), pH 3.4, HPLC on reversed-phase column (C 18).
The mark [5] stands for this setting: HPLC on reversed-phase column (C 18).

On to `O=C(NCC(F)(F)F)c1cnn(-c2cccnc2)c1` [Example 3, 1-(pyridin-3-yl)-N-(2,2,2-trifluoroethyl)-1H-pyrazole-4-carboxamide], for which, in data set [1], the pest or weed control at 500 g/ha stood at 100%. For the same compound, the chromatographic logP in data set [2] (setting [4]) came to 1.18. In data set [3], the “efficacy in % (100% means that all beetle larvae were killed)” value came to 100%.
As to `O=C(NCCF)c1cnn(-c2cccnc2)c1` [Example 9], the “efficacy in % (100% means that no ticks have laid fertile eggs)” value in the data set on Boophilus microplus is on record as 100%. Also, the pest or weed control at 500 g/ha in data set [1] came to 100%. In addition, the chromatographic logP in data set [2] (setting [4]) is 0.56.
With `Cc1nn(-c2cccnc2)cc1C(=O)NCc1nc(C2CC2)no1` [Example 48], the pest or weed control at 500 g/ha in data set [1] came to 100%. The chromatographic logP in data set [2] (setting [4]) amounted to 1.43.
With `Cc1cc(C)nc(CNC(=O)c2cn(-c3cccnc3)nc2C)n1` [Example 49], the pest or weed control at 500 g/ha in data set [1] is 100%. In data set [2] (setting [4]), the chromatographic logP was determined as 1.2.
With `COC(=O)NNC(=O)c1cn(-c2cccnc2)nc1C` [Example 50], the pest or weed control at 500 g/ha in data set [1] was found to be 100%. Besides, the chromatographic logP in data set [2] (setting [5]) was 0.52.
For `O=C(NCC(F)(F)C(F)(F)F)c1cnn(-c2cccnc2)c1` [Example 52], in data set [1], the pest or weed control at 50 g/ha stood at 90%. For the same compound, the chromatographic logP in data set [2] (setting [4]) was 1.69.
Turning to `N#CC1(NC(=O)c2cnn(-c3cccnc3)c2)CC1` [Example 53], the pest or weed control at 50 g/ha in data set [1] amounted to 90%. Also, in data set [2] (setting [4]), the chromatographic logP came out at 0.76.
Consider `COC(=O)N(C)NC(=O)c1cn(-c2cccnc2)nc1C` [Example 54], for which the pest or weed control at 500 g/ha in data set [1] is 100%. For the same compound, the chromatographic logP in data set [2] (setting [5]) is 0.79.
As to `COC(=O)C(C)NC(=O)c1cnn(-c2cccnc2)c1` (centres unmarked) [Example 55], the pest or weed control at 50 g/ha in data set [1] was found to be 90%. The chromatographic logP in data set [2] (setting [4]) worked out at 0.91.
